According to patent US12162935B2, “Regimens, compositions and methods with capsaicin and TNF-alpha inhibitor” (priority 2018, dated 2024):

What was measured:
[1] = system: UB/OC1 cells; assay: Bax/Bcl-2 ratio in UB/OC1 cells; type: cell-based, mouse
[2] = system: Wistar rats; assay: ABR threshold shifts, cisplatin-induced hearing loss; type: in vivo, rat
Description: Adult male Wistar rats (200-350 g) (from Envigo) were used for this study. Rats were housed in a temperature controlled room with a twelve hour light/dark cycle. They had free access to commercial food and water provided by the SIU Laboratory Animal Care facility.
Prior to experiments, rats were anesthetized with ketamine HCl/xylazine mixture (24.6/3 mg/kg) and then placed in a sound-attenuation chamber (Industrial Acoustic Company, Inc.). Body temperature of the rats was maintained at 37° C. with an animal blanket system. Pretreatment auditory brainstem responses (ABRs) was performed using an IHS-High-frequency System (Intelligent Hearing Systems, Miami, FL). The rats were exposed to acoustic stimuli via HIS transducers that were directly placed at the entrance of the ear canal. ABR thresholds were obtained for 5 ms duration tone bursts at 8, 16 and 32 kHz at a rate of 50/s. Thresholds were determined by visually produced lowest intensity evoked potentials (EP) that progressed in 10 dB steps. Evoked potentials (Eps) were amplified to 200,000×, and were band pass filtered (100-3000 Hz) and averaged over 1024 sweeps [Mukherjea et al., 2010].
At the end of auditory testing, the anesthetized animals were decapitated and the cochlea harvested. The SIU Laboratory Animal Care and Use Committee approved all animal procedures.
Male Wistar rats were anesthetized using ketamine/xylazine cocktail. The tympanic membrane was punctured as described in [Mukherjea et al., 2010].

[3] = system: UB/OC-1 cells; assay: Western blot of STAT1, STAT3 and JAK2 phosphorylation; type: cell-based, mouse
[4] = system: rat cochlea; assay: Cochlear gene expression by q-PCR (cisplatin study); type: in vivo
[5] = system: Wistar rats; details: capsaicin TT 50 μl of 0.1 μM; Mukherjea et al., 2011; cited from earlier work
[6] = system: outer hair cells (OHCs); assay: Outer hair cell damage by SEM and whole mount hair cell count; type: in vivo, rat
Text: Immediately after completion of post-treatment ABRs, rats were euthanized and their cochleae were harvested and the specimens processed as described previously by [Kamimura et al.]. Sputter-coated cochlea were viewed and photographed with a Hitachi S-500 scanning electron microscope (Hitachi Ltd.). The resulting scanning electron micrographs were examined to determine qualitative morphological characteristics in various regions including the basal, middle, and apical turns of the rat cochlea.
Two representative areas of the basal turn, middle turn, and apex and hook portion were photographed. In each area, outer hair cells (OHCs) were counted in an area that was 10 pillar cell heads in length. The results are presented as the percentage hair cell damage per cochlear turn. At least three cochleae from different animals per treatment group were used.
To study the organization of the outer hair cells and inner hair cells, the cochlear whole mount technique was used. The cochleae was fixed in fresh 4% paraformaldehyde overnight, and then decalcified in […] EDTA for 2 weeks, (pH 7.3) while stirring at room temperature for 2 weeks. After decalcification, the cochleae was microdissected into basal, middle, and apical turns for whole-mount preparation.
For further processing, segments were washed with 1×PBS twice for 5 mins. For blocking, the segments were incubated in 10% blocking serum (horse serum) for 3 hrs at room temperature. The segments were incubated with primary antibody in 0.2% Triton prepared in PBS and refrigerated overnight. The following day, the segments were washed in PBS (three washes) for 5 mins each wash. The segments were washed in secondary antibody for 2 hrs at room temperature in the dark. The antibodies were then washed with PBS (three washes). Glass coverslips were then mounted on the segments with ProLong Diamond Antifade Mountant (Thermo Fisher Scientific) and incubated them at room temperature overnight and then stored them in 4 degrees. Images were procured using a Leica confocal microscope (Buffalo Grove, IL).
For hair cell count in whole mount preparations, two to three random areas from the basal turn from each treatment group separately were selected. Hair cells were counted in […] segments of the cochlea respectively. Counts were averaged across treatment group. This was further normalized as % of PBS (control) by taking the values of control as 100%.

[7] = molecular target: TRPV1 (Homo sapiens, UniProt Q8NER1); assay: Ca2+ imaging (Fluo-4AM) in HEKVR1 cells; type: cell-based; details: capsaicin 2.5 μM
Sequence of TRPV1 (Q8NER1 whole entry, species assumed): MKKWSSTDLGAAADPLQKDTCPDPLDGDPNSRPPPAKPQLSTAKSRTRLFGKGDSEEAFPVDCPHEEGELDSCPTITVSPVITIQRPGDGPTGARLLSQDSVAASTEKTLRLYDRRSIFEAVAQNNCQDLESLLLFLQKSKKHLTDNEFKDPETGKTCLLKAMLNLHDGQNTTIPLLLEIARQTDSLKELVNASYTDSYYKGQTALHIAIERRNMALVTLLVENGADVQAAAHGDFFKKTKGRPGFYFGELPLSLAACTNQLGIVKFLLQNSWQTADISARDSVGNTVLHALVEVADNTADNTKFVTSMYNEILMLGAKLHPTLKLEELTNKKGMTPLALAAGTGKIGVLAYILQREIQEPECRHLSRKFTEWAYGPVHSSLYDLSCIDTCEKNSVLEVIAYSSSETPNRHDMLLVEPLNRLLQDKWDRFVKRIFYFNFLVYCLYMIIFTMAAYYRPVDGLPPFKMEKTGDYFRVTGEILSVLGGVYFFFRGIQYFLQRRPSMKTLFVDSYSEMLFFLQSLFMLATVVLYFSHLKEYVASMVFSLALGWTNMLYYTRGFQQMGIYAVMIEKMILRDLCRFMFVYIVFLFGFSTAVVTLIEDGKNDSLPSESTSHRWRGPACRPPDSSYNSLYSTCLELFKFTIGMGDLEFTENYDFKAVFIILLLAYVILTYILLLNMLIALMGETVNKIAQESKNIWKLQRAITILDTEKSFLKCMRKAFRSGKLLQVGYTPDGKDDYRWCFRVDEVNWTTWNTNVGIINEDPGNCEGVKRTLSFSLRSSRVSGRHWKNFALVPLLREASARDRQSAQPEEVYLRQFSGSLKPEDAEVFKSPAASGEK
Text: NE has been linked to immediate increase in ROS generation and persistent oxidative stress in the cochlea2, leading to generation of reactive oxygen species such as: hydroxyl […] (OH^−), superoxide anion (O^2—) and hydrogen peroxide (H2O2).

[8] = capsaicin 2.5 μM 30 min and/or cisplatin 2.5 μM 45 min (FIG. 5.E)

With COc1cc(CNC(=O)CCCC/C=C/C(C)C)ccc1O [capsaicin, 8-methyl-N-vanillyl-trans-6-nonenamide] as the molecule, how does the Bax/Bcl-2 ratios [1] read?
The Bax/Bcl-2 ratios was 1.1±0.2.

What about the “ABR threshold shifts produced by cisplatin” value ([2]; TT-capsaicin 50 μl of 0.1 μM 24 h prior to cisplatin 11 mg/kg ip, 72 h, 8, 16 and 32 kHz) of the same molecule?
The value was “significantly reduced ABR threshold shifts”.

And the ABR thresholds ([2]; TT-capsaicin alone, 72 h, vs TT vehicle)?
The ABR thresholds was “did not significantly alter ABR thresholds”.

What about the ABR threshold ([2]; capsaicin alone by trans-tympanic injection or oral gavage, 72 h) of the same molecule?
The ABR threshold was “did not significantly alter ABR threshold”.

What about the “protection against cisplatin-induced ABR threshold shifts” value ([2]; oral capsaicin 5 mg/kg 24 h prior to cisplatin) of the same molecule?
The value was “did not protect”.

And the “cisplatin ABR threshold shift” value ([2]; oral capsaicin 20 mg/kg 24 h prior to cisplatin (FIG. 11.B))?
The value was “abrogated”.

And the “protection against cisplatin-induced ABR threshold shifts” value ([2]; oral capsaicin 10 or 20 mg/kg 24 h prior to cisplatin)?
Its value is “Significant protection”.

And the JAK2 phosphorylation ([3]; 2.5 μM, time course)?
The JAK2 phosphorylation was “increased activation”.

What about the p-STAT1 [3, 8] of the same molecule?
Its p-STAT1 is 135.4±4%.

What about the p-STAT3 [3, 8] of the same molecule?
The p-STAT3 was 173±4%.

And the “p-STAT3/p-STAT1 ratio peak value” ([3]; capsaicin 2.5 μM, reached in 45 min)?
Its value is roughly 130%.

And the “time of peak STAT1 Ser^727 phosphorylation” value ([3]; capsaicin 2.5 μM, returns to baseline by 120 min)?
The value was 45 min.

And the p-STAT3/p-STAT1 ratio ([3]; of control (FIG. 5.F))?
Its p-STAT3/p-STAT1 ratio is 128±4.1%.

What about the “expression of TRPV1, NOX3 and iNOS” value ([4]; TT-capsaicin 24 h prior to cisplatin) of the same molecule?
Its value is “significant reduction”.

And the “expression of TRPV1, NOX3 and iNOS” value ([4]; capsaicin alone)?
The value was “did not significantly change”.

What about the “CB2 receptor expression in the rat cochlea” value ([4]; oral capsaicin) of the same molecule?
The value was “increased the expression of CB2 receptor”.

And the “Bax/Bcl-2 ratio, rat cochlea” value ([4]; oral capsaicin prior to cisplatin)?
Its value is “significant decrease”.

What about the “Bax/Bcl-2 ratio, rat cochlea” value ([4]; single agent (cisplatin or oral capsaicin alone)) of the same molecule?
Its value is “less than half of that observed following cisplatin alone”.

And the “duration of transient ABR threshold shift” value [5]?
The value was 24 h.

What about the “stereociliary damage induced by cisplatin” value ([6]; SEM, oral capsaicin) of the same molecule?
Its value is “significantly reduced”.

And the “loss of outer hair cells” value ([6]; SEM, trans-tympanic capsaicin pretreatment, cisplatin)?
Its value is “no significant loss of outer hair cells”.

And the hair cell damage ([6]; whole mount, oral capsaicin alone)?
The hair cell damage was “minimal hair cell damage”.

And the “outer hair cell loss compared to control” value ([6]; whole mount, oral capsaicin prior to cisplatin)?
Its value is “no significant outer hair cell loss”.

And the “increase in Ca^2+ over basal fluorescence” value [7]?
Its value is 741±22%.
